In one data set the target is thrombin (Homo sapiens, UniProt P00734). Briefly: Fluorometric assay of in vitro thrombin activity. Type of data set: biochemical. An excerpt:
The enamine-purchased 7 compound was confirmed using mass spectrometry and ^1H NMR (data not shown) and then was independently resynthesized at Vanderbilt University (VU).
(1 picture or pasted object on this page, not shown here)

The nature of data set [1]: Plasma protein binding, mouse plasma. Type of data set: in vitro ADME. To be noted: pH 7.4, read-out: mouse PPB fu. As for the experimental part: The protein binding of each compound was determined in mouse plasma via equilibrium dialysis employing single-use RED plates with inserts (Thermo Fisher Scientific, Rochester, NY). Plasma (220 μL) was added to a 96-well plate containing test compound (5 μL) and mixed thoroughly. Subsequently, 200 μL of the plasma–compound mixture was transferred to the cis chamber (red) of the RED plate with an accompanying 350 μL of phosphate buffer (25 mM, pH 7.4) in the trans chamber. The RED plate was sealed and incubated for 4 h at 37 °C with shaking. At completion, 50 μL aliquots from each chamber were diluted 1:1 (50 μL) with either plasma (cis) or buffer (trans) and transferred to a new 96-well plate, at which time ice-cold acetonitrile (2 volumes) was added to extract the matrices. The plate was centrifuged (3000 rpm, 10 min), and supernatants were transferred and diluted 1:1 (supernatant: water) into a new 96-well plate, which was then sealed in preparation for LC/MS/MS analysis. Each compound was assayed in triplicate within the same 96-well plate.
The analysis of in vitro samples from microsomal stability or plasma protein binding experiments was determined by employing LCMS/MS with an electrospray ionization-enabled 5500 Sciex instrument (Sciex, Foster City, CA) that was coupled to Agilent HPLC pumps and an autosampler (Agilent Technologies, Santa Clara, CA). Analytes were separated by gradient elution using a Kinetex C18 column (2.1 mm × 50 mm, 5 μm; Phenomenex, Torrance, CA) warmed to 35 °C. Mobile phase A was 0.5% formic acid in water, and mobile phase B was 0.5% formic acid in acetonitrile. […] The total run time was 2.8 min, and the HPLC flow rate was 0.5 mL/min. […] Data were analyzed using OS Sciex Analyst 1.5.1 (SCIEX, Framingham, MA), Graphpad Prism 10.1.0 (GraphPad Software, Boston, Massachusetts), and Microsoft Excel version 2310 (Microsoft, Redmond, WA).

In the next data set the target is T1, PAR1 (Homo sapiens, UniProt P25116).
T1 construct: endogenous in cells; host or cells: platelets
T1 sequence (P25116 22-425): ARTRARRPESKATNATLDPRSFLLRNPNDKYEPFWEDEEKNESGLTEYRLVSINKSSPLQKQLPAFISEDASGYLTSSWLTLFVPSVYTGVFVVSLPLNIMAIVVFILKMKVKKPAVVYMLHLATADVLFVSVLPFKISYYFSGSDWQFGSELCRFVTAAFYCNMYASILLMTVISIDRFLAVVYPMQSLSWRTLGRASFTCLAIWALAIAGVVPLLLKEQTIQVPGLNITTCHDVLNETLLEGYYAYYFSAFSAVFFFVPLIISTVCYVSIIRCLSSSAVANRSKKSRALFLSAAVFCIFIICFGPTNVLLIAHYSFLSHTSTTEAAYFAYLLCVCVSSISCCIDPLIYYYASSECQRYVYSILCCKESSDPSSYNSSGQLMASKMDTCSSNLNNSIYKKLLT
Briefly: PAR1 component of α-thrombin activation (α-thrombin + BMS-3) in platelets. Type of data set: cell-based. As to conditions: read-out: PAR1 IC50 (Figure 6D). From the text: Figure 6 (A) Distribution of IC50 values for the inhibition of human PAR4 vs mouse PAR4. Red indicates the 2 compounds highlighted in panels (B–D). (B) Structures of exemplar compounds. (C) Concentration–response curves for human vs mouse PAR4. (D) Concentration–response curves for the inhibition of pharmacologically defined α-thrombin components for PAR1 (α-thrombin + BMS-3) vs PAR4 (α-thrombin + vorapaxar).
α-thrombin activates both PAR1 and PAR4, and the individual PAR1 or PAR4 component can be isolated pharmacologically. […] With 20 substitutions between PAR1 and PAR4 within 5 Å of the predicted 31 binding site, the basis for these selectivity differences is not known (Figure S4). As we continue to probe for a selective PAR4 antagonist, mutagenesis of individual residues will be conducted.

For another data set, the target named is T2, PAR4 (Homo sapiens, UniProt Q96RI0).
T2 sequence (Q96RI0 18-385): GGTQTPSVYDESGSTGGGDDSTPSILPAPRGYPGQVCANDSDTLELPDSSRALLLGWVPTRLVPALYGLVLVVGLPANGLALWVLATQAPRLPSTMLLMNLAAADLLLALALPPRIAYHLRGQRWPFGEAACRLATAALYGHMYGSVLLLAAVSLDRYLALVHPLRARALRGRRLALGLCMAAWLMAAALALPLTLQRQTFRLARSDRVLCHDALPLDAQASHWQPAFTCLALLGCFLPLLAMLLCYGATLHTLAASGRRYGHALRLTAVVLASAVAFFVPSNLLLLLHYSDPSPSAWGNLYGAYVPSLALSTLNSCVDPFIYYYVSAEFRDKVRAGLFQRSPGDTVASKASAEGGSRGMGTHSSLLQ
Put plainly: Schild analysis, progressive fold-shift against γ-thrombin in platelets. To be noted: for mode of inhibition: against γ-thrombin activation; for Schild plot slope m: slope of linear regression, γ-thrombin, 20 min pretreatment. It is filed as cell-based. The arrangement: endogenous in cells; host or cells: platelets. As for the experimental part:
A Schild analysis was performed on compounds 12 and 31 to determine the mode of inhibition of these compounds.
Figure 7 Schild analysis progressive fold-shift experiments. (A) Platelets were pretreated with increasing concentrations of each antagonist for 20 min prior to activation with increasing concentrations of γ-thrombin. (B) Logarithmic transformation of the dose ratio plotted versus the logarithm of compound concentration. m = slope of linear regression. TEXT PRINTED IN THE PICTURE: (B) 12: m = 0.99 | (D) 31: m = 0.95

Here are results for five compounds from article PMC11020070, “Discovery of Protease-Activated Receptor 4 (PAR4)-Tethered Ligand Antagonists Using Ultralarge Virtual Screening” (ACS Pharmacology & Translational Science, 2024).

Molecules are shown by their SMILES. Entries after “also recorded” stand apart in the source; their conditions may differ.

With `Cc1nc(NC(=O)c2cc(-c3ccccc3)n(-c3ccccc3)n2)n[nH]1` [Compound 7], the “direct inhibition of thrombin enzymatic activity” value at thrombin is listed as “do not inhibition; also recorded: failed to directly inhibit”.

As for `O=C(Nc1nc[nH]n1)c1nn(-c2ccccc2)c2c1CCC2` [Compound 17], the fraction unbound at 4 h in data set [1] was found to be 0.006.

As for `Cn1nc(C(=O)Nc2n[nH]c(-c3c(F)cccc3F)n2)cc1C1CC1` [Compound 12], on PAR1, the IC50 amounted to 5.81 µM. Also, the fraction unbound at 4 h in data set [1] is 0.169. Further, on PAR4, the mode of inhibition result is “competitive” and the “Schild plot slope m” value is 0.99.

With `O=C(Nc1n[nH]c(-c2ccc(F)cc2F)n1)c1nn(-c2ccccc2)c2c1CCCC2` [Compound 31], the IC50 at PAR1 stood at 1.51 µM. Further, the fraction unbound at 4 h in data set [1] was 0.044. On PAR4, the mode of inhibition entry is “competitive” and the “Schild plot slope m” value came to 0.95.

`Cc1cc(C(=O)Nc2n[nH]c(OC(F)F)n2)nn1-c1ccccc1` [Compound 9]: the “direct inhibition of thrombin enzymatic activity” value at thrombin is given as “do not inhibition”.

In general, IC50 refers to the midpoint of a concentration-inhibition curve.
